For data set [1] the following is noted: cited from earlier work.
Data set [2] deals with LAMP reaction on lambda phage DNA. Kind of data set: LAMP with contaminants (Example 4). The conditions noted are these: 10% additive (1 uL in 10 uL reaction). It is filed as biochemical. The procedure:
LAMP reactions were carried out using standard conditions provided by NEB with slight modifications. LAMP solutions were provided by NEB unless otherwise noted. The final solution contained 1× Isothermal Amplification Buffer I, 1.4 mM dNTPs, 7 mM MgSO4 (5 mM+2 mM in buffer), WarmStart Bst 2.0 (320 U/mL), 1 mg/mL BSA (Ambion) Lambda phage LAMP primers (standard desalted, Integrated DNA Technologies) at concentrations 0.2 uM F3/B3, 1.6 uM FIP/BIP, 0.4 uM LoopF/B as previously developed by Goto in 2009 were used. Reactions were made to a total of 10 uL comprised of 5 uL concentrated reaction mix and 5 uL of purified nucleic acids from the various extraction conditions (NF—H2O for negative control). For positive controls, 5 uL purified lambda phage DNA ([…]) was added to each reaction and for 5 uL template from nucleic acid extractions or each sample was tested in triplicate (n=3) and solutions were made to either 9 uL or 10 uL. The LAMP reaction was carried out by heating to 68° C. and all of the wells were tracked in real-time (image every 35 s) on the BioRad CFX-96 system. Samples were deemed negative if they […] over 30 min. Cycle times were determined automatically using the BioRad analysis software and converted to time-to-positive in minutes. […]

For `CCCCCO` [1 pentanol], the “Water solubility at 25° C.” value in data set [1] is 2.2 g/100 mL.

As for `CCCCCCCCCCCCCO` [1 tridecanol], the “Water solubility at 25° C. (in words)” value in data set [1] (explained as a solubility of 1 g per 10 L of solvent) was “practically insoluble (a”.

As for `CCCCCCCCO` [1-octanol], the “Delay in LAMP (time-to-positive)” value in data set [2] (versus 10 uL positive control) is reported as 1.4 min. Also, in data set [1], the “Water solubility at 25° C.” value is on record as 0.03 g/100 mL.

As to `CCCCC(O)CCCC` [5-nonanol], the “Water solubility at 25° C.” value in data set [1] is given as 0.046 g/100 mL.

Take `CCCCCCCCCCCCCCCCCCCCO` [Arachidyl Alcohol (20 ol), Arachidyl Alcohol]: the “Water solubility at 25° C.” value in data set [1] is on record as 0.151 ug/100 mL.

As to `CCO` [ethanol, reference compound], the “Inhibition of the LAMP reaction” value in data set [2] (no amplification for at least 30 min) is recorded as “completely inhibits the LAMP reaction”.

(Values after patent US11753635B2, “Methods and systems and related compositions for mixtures separation with a solid matrix” (CALIFORNIA INSTITUTE OF TECHNOLOGY, priority 2017, dated 2023).)
